Reference: PubChem BioAssay (NCI)
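A five-concentration, 48-hour dose response in 96-well plates underlies each endpoint, interpolated linearly between surrounding concentrations. TGI: concentration producing complete growth inhibition.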

Key:
Assay in all cases: inhibition of tumour cell growth, NCI panel, 48 h
NCI-H460 lung = system: NCI-H460 lung
SN12C renal = system: SN12C renal
OVCAR-3 ovarian = system: OVCAR-3 ovarian
SNB-19 CNS = system: SNB-19 CNS
EKVX NSCLC = system: EKVX NSCLC
HCT-116 colon = system: HCT-116 colon
SF-268 CNS = system: SF-268 CNS
786-0 renal = system: 786-0 renal
OVCAR-8 ovarian = system: OVCAR-8 ovarian
KM12 colon = system: KM12 colon
A549 NSCLC = system: A549 NSCLC
UO-31 renal = system: UO-31 renal
RPMI-8226 leukemia = system: RPMI-8226 leukemia
CCRF-CEM leukemia = system: CCRF-CEM leukemia
COLO 205 colon = system: COLO 205 colon
SF-539 CNS = system: SF-539 CNS
ACHN renal = system: ACHN renal
HCT-15 colon = system: HCT-15 colon
SW-620 colon = system: SW-620 colon
HL-60(TB) leukemia = system: HL-60(TB) leukemia
HCC-2998 colon = system: HCC-2998 colon
HT29 colon = system: HT29 colon
MOLT-4 leukemia = system: MOLT-4 leukemia
A498 renal = system: A498 renal
UACC-257 melanoma = system: UACC-257 melanoma
OVCAR-5 ovarian = system: OVCAR-5 ovarian
SNB-75 CNS = system: SNB-75 CNS
M14 melanoma = system: M14 melanoma
CAKI-1 renal = system: CAKI-1 renal
SK-MEL-2 melanoma = system: SK-MEL-2 melanoma
TK-10 renal = system: TK-10 renal
NCI-H23 lung = system: NCI-H23 lung
RXF 393 renal = system: RXF 393 renal
K-562 leukemia = system: K-562 leukemia
SNB-78 CNS = system: SNB-78 CNS
OVCAR-4 ovarian = system: OVCAR-4 ovarian
DLD-1 colon = system: DLD-1 colon
HOP-62 NSCLC = system: HOP-62 NSCLC
SR leukemia = system: SR leukemia
LXFL 529 NSCLC = system: LXFL 529 NSCLC
KM20L2 colon = system: KM20L2 colon
SF-295 CNS = system: SF-295 CNS
LOX IMVI melanoma = system: LOX IMVI melanoma
SK-MEL-28 melanoma = system: SK-MEL-28 melanoma
NCI-H226 lung = system: NCI-H226 lung
HOP-92 NSCLC = system: HOP-92 NSCLC
SK-MEL-5 melanoma = system: SK-MEL-5 melanoma
BT-549 breast = system: BT-549 breast
IGROV1 ovarian = system: IGROV1 ovarian
PC-3 prostate = system: PC-3 prostate
DU-145 prostate = system: DU-145 prostate
HS 578T breast = system: HS 578T breast
MDA-MB-231 breast = system: MDA-MB-231 breast
MDA-MB-435 = system: MDA-MB-435
NCI/ADR-RES ovarian = system: NCI/ADR-RES ovarian
MCF7 breast = system: MCF7 breast
U251 CNS = system: U251 CNS
NCI-H522 lung = system: NCI-H522 lung
SK-OV-3 ovarian = system: SK-OV-3 ovarian
MALME-3M melanoma = system: MALME-3M melanoma
UACC-62 melanoma = system: UACC-62 melanoma
T-47D breast = system: T-47D breast
MDA-N = system: MDA-N

## O=[N+]([O-])C=C1c2ccccc2-c2ccccc21
NCI-H460 lung
  TGI: 38.9 µM
SN12C renal
  TGI: 35.7 µM
OVCAR-3 ovarian
  TGI: 28.4 µM
SNB-19 CNS
  TGI: 51.8 µM
EKVX NSCLC
  TGI: 37.1 µM
HCT-116 colon
  TGI: 17.5 µM
SF-268 CNS
  TGI: 36.4 µM
786-0 renal
  TGI: 30.3 µM
OVCAR-8 ovarian
  TGI: 34.2 µM
KM12 colon
  TGI: 31.7 µM
A549 NSCLC
  TGI: 42.8 µM
UO-31 renal
  TGI: 28.5 µM
RPMI-8226 leukemia
  TGI: 5.5 µM
CCRF-CEM leukemia
  TGI: 80.8 µM
COLO 205 colon
  TGI: 3.33 µM
SF-539 CNS
  TGI: 31.3 µM
ACHN renal
  TGI: 30.6 µM
HCT-15 colon
  TGI: 38.7 µM
SW-620 colon
  TGI: 31.2 µM
HL-60(TB) leukemia
  TGI: 23.7 µM
HCC-2998 colon
  TGI: 30.6 µM
HT29 colon
  TGI: 37.3 µM
MOLT-4 leukemia
  TGI: 53.5 µM
A498 renal
  TGI: 34.6 µM
UACC-257 melanoma
  TGI: 33.7 µM
OVCAR-5 ovarian
  TGI: 31.4 µM
SNB-75 CNS
  TGI: 40.7 µM
M14 melanoma
  TGI: 25.3 µM
CAKI-1 renal
  TGI: 24.5 µM
SK-MEL-2 melanoma
  TGI: 39.9 µM
TK-10 renal
  TGI: 32.3 µM
NCI-H23 lung
  TGI: 30.4 µM
RXF 393 renal
  TGI: 31.3 µM
K-562 leukemia
  TGI: 6.34 µM
SNB-78 CNS
  TGI: 31.1 µM
OVCAR-4 ovarian
  TGI: 28.2 µM
DLD-1 colon
  TGI: 7.71 µM
HOP-62 NSCLC
  TGI: 31.3 µM
SR leukemia
  TGI: 28.5 µM
LXFL 529 NSCLC
  TGI: 28.2 µM
KM20L2 colon
  TGI: 34.5 µM
SF-295 CNS
  TGI: 33.5 µM
LOX IMVI melanoma
  TGI: 30.9 µM
SK-MEL-28 melanoma
  TGI: 31.1 µM

## COc1ccc2c(c1)CCCc1c-2nc2ccccc2c1N
NCI-H226 lung
  TGI: 28.4 µM
NCI-H460 lung
  TGI: 16.9 µM
HOP-92 NSCLC
  TGI: 18.9 µM
SK-MEL-5 melanoma
  TGI: 15.1 µM
SN12C renal
  TGI: 17.9 µM
OVCAR-3 ovarian
  TGI: 27.5 µM
BT-549 breast
  TGI: 31 µM
SNB-19 CNS
  TGI: 31.8 µM
EKVX NSCLC
  TGI: 22.2 µM
HCT-116 colon
  TGI: 18.6 µM
SF-268 CNS
  TGI: 29.2 µM
786-0 renal
  TGI: 18.5 µM
OVCAR-8 ovarian
  TGI: 26.8 µM
IGROV1 ovarian
  TGI: 28.7 µM
PC-3 prostate
  TGI: 23.4 µM
KM12 colon
  TGI: 30.9 µM
A549 NSCLC
  TGI: 25.7 µM
UO-31 renal
  TGI: 18.5 µM
RPMI-8226 leukemia
  TGI: 27.3 µM
DU-145 prostate
  TGI: 26.1 µM
CCRF-CEM leukemia
  TGI: 32 µM
HS 578T breast
  TGI: 45.3 µM
COLO 205 colon
  TGI: 3.22 µM
SF-539 CNS
  TGI: 24.8 µM
ACHN renal
  TGI: 29 µM
HCT-15 colon
  TGI: 26.5 µM
SW-620 colon
  TGI: 29 µM
HL-60(TB) leukemia
  TGI: 32.4 µM
HCC-2998 colon
  TGI: 3.34 µM
HT29 colon
  TGI: 13.7 µM
MOLT-4 leukemia
  TGI: 66.5 µM
A498 renal
  TGI: 20.8 µM
UACC-257 melanoma
  TGI: 9.56 µM
MDA-MB-231 breast
  TGI: 19 µM
OVCAR-5 ovarian
  TGI: 23.9 µM
SNB-75 CNS
  TGI: 22.6 µM
M14 melanoma
  TGI: 21.1 µM
CAKI-1 renal
  TGI: 26.8 µM
MDA-MB-435
  TGI: 24.8 µM
SK-MEL-2 melanoma
  TGI: 29.1 µM
TK-10 renal
  TGI: 23.2 µM
NCI/ADR-RES ovarian
  TGI: 33.6 µM
NCI-H23 lung
  TGI: 31.6 µM
MCF7 breast
  TGI: 24.9 µM
RXF 393 renal
  TGI: 18.7 µM
K-562 leukemia
  TGI: 58.5 µM
U251 CNS
  TGI: 25.2 µM
NCI-H522 lung
  TGI: 28 µM
SK-OV-3 ovarian
  TGI: 24.2 µM
OVCAR-4 ovarian
  TGI: 27.3 µM
HOP-62 NSCLC
  TGI: 12.9 µM
MALME-3M melanoma
  TGI: 27.1 µM
UACC-62 melanoma
  TGI: 25.4 µM
SR leukemia
  TGI: 6.32 µM
T-47D breast
  TGI: 31.3 µM
MDA-N
  TGI: 21.9 µM
SF-295 CNS
  TGI: 23.1 µM
LOX IMVI melanoma
  TGI: 20.9 µM
SK-MEL-28 melanoma
  TGI: 25.5 µM
